Data on six sequences can be found in paper PMC11683478, “Bioprospecting of culturable marine biofilm bacteria for novel antimicrobial peptides” (iMeta, 2024).

Common to all, as to experiment: Antibacterial screen at 200 μg/mL (cell density vs control)
Format in all cases: cell-based
What all share (settings): peptide 200 μg/mL, CAMHB, 5 × 10^5 CFU/mL, 37°C, 12 h, OD600; control (no AMP) = 1; three biological replicates

The test system of one experiment is Vibrio owensii ems001. On the procedure:
(§1) Eight bacterial strains were utilized in the antibacterial experiment. S. aureus ATCC 12600, B. subtilis ATCC 23857, E. coli ATCC 11775, and A. baumannii ATCC 19606 were purchased from Shanghai Beinuo Biology. M. luteus ATCC 4698 and S. bongori ATCC43975 were purchased from Shanghai Beisi Biotechnology. V. owensii ems001 and V. alginolyticus xv22 from the intestines of diseased shrimps were isolated in our laboratory. All strains were cultured in the cation‐adjusted Mueller‐Hinton broth (CAMHB) at 37°C to the logarithmic growth phase (OD600 = 0.5). Then, bacteria were gradient‐diluted using fresh CAMHB to a bacterial density of 5 × 10^5 CFU/mL. Antibacterial experiments were performed in a 96‐well plate with 200 μg/mL final peptide concentration. Four experimental groups were set up, including a blank control (200 μL CAMHB), a negative control (180 μL CAMHB plus 20 μL peptide), a positive control (180 μL bacterial culture plus 20 μL ultrapure water), and an experimental group (180 μL bacterial culture plus 20 μL peptide). Three biological replicates were conducted for each group, and OD600 values were measured after incubation at 37°C for 12 h. Every observed value was removed from the blank control group value. The value of the experimental group was then subtracted from the value of the negative control group therefore eradicating the effect of the peptide on the OD measurement. Student's t‐test allowed the estimation of a notable variation between the experimental and positive groups using a p‐value of 0.05 as the limit. […] The MIC of a peptide against a bacterium was determined as the minimum peptide concentration at which there was no visible bacterial growth.

The subject of experiment [1] is Vibrio alginolyticus xv22. The method, then:
as §1

For experiment [2], the system named is Staphylococcus aureus ATCC 12600. On the procedure: as §1
The subject of experiment [3] is Salmonella bongori ATCC 43975. On the procedure:
as §1

Experiment [4] deals with Acinetobacter baumannii ATCC 19606. The method, then:
as §1

In experiment [5] the test system is Bacillus subtilis ATCC 23857. On the procedure:
as §1

Experiment [6] has as its system Micrococcus luteus ATCC 4698. The method, then: as §1
The test system of experiment [7] is Escherichia coli ATCC 11775. On the procedure: as §1

“MPKVKTKVCHRR [Cand-26, chemically synthesized candidate AMP predicted from marine biofilm bacteria]”: in the experiment with Vibrio owensii ems001, the “cell density relative to control, V. owensii ems001” value amounted to 0.917. Further, in experiment [1], the “cell density relative to control, V. alginolyticus xv22” value was 0. In experiment [2], the “cell density relative to control, S. aureus ATCC 12600” value is given as 0.897. The “cell density relative to control, S. bongori ATCC 43975” value in experiment [3] was found to be 0.862. Besides, the “cell density relative to control, A. baumannii ATCC 19606” value in experiment [4] is given as 0.88. The “cell density relative to control, B. subtilis ATCC 23857” value in experiment [5] is recorded as 0.676. In experiment [6], the “cell density relative to control, M. luteus ATCC 4698” value stood at 1. Moreover, the “cell density relative to control, E. coli ATCC 11775” value in experiment [7] is 1.

Consider “MGRISCMWSSSYKCRFNCYF [Cand-20, chemically synthesized candidate AMP predicted from marine biofilm bacteria]”, for which, in the experiment with Vibrio owensii ems001, the “cell density relative to control, V. owensii ems001” value stood at 0.818. For the same sequence, the “cell density relative to control, V. alginolyticus xv22” value in experiment [1] is reported as 0.635. The “cell density relative to control, S. aureus ATCC 12600” value in experiment [2] turned out to be 0.809. Besides, the “cell density relative to control, S. bongori ATCC 43975” value in experiment [3] was 1. Also, in experiment [4], the “cell density relative to control, A. baumannii ATCC 19606” value came to 0.937. For the same sequence, in experiment [5], the “cell density relative to control, B. subtilis ATCC 23857” value was determined as 1. The “cell density relative to control, M. luteus ATCC 4698” value in experiment [6] was determined as 1. In experiment [7], the “cell density relative to control, E. coli ATCC 11775” value is reported as 1.

As for “MRQGMCRIGGRL [Cand-55, chemically synthesized candidate AMP predicted from marine biofilm bacteria]”, in the experiment on Vibrio owensii ems001, the “cell density relative to control, V. owensii ems001” value was 1. In addition, the “cell density relative to control, V. alginolyticus xv22” value in experiment [1] turned out to be 0. Besides, the “cell density relative to control, S. aureus ATCC 12600” value in experiment [2] is on record as 0.793. Moreover, the “cell density relative to control, S. bongori ATCC 43975” value in experiment [3] was 1. Also, the “cell density relative to control, A. baumannii ATCC 19606” value in experiment [4] stood at 0.845. For the same sequence, the “cell density relative to control, B. subtilis ATCC 23857” value in experiment [5] was determined as 0.908. In addition, the “cell density relative to control, M. luteus ATCC 4698” value in experiment [6] stood at 1. For the same sequence, in experiment [7], the “cell density relative to control, E. coli ATCC 11775” value was 0.915.

On to “MRHNMCRIGGRL [Cand-203, chemically synthesized candidate AMP predicted from marine biofilm bacteria]”, for which, in the experiment with Vibrio owensii ems001, the “cell density relative to control, V. owensii ems001” value was 1. Further, in experiment [1], the “cell density relative to control, V. alginolyticus xv22” value came to 0.004. For the same sequence, the “cell density relative to control, S. aureus ATCC 12600” value in experiment [2] is on record as 1. The “cell density relative to control, S. bongori ATCC 43975” value in experiment [3] is given as 0.825. For the same sequence, the “cell density relative to control, A. baumannii ATCC 19606” value in experiment [4] turned out to be 1. Besides, the “cell density relative to control, B. subtilis ATCC 23857” value in experiment [5] came out at 1. Besides, the “cell density relative to control, M. luteus ATCC 4698” value in experiment [6] is 0.966. Moreover, in experiment [7], the “cell density relative to control, E. coli ATCC 11775” value is recorded as 1.

Consider “MIYICTRITKCKLHGGCSSVG [Cand-155, chemically synthesized candidate AMP predicted from marine biofilm bacteria]”, for which, in the experiment on Vibrio owensii ems001, the “cell density relative to control, V. owensii ems001” value stood at 0.77. The “cell density relative to control, V. alginolyticus xv22” value in experiment [1] stood at 1. In addition, the “cell density relative to control, S. aureus ATCC 12600” value in experiment [2] worked out at 0. The “cell density relative to control, S. bongori ATCC 43975” value in experiment [3] was determined as 1. Moreover, the “cell density relative to control, A. baumannii ATCC 19606” value in experiment [4] is on record as 1. Further, in experiment [5], the “cell density relative to control, B. subtilis ATCC 23857” value is listed as 0.99. Besides, the “cell density relative to control, M. luteus ATCC 4698” value in experiment [6] turned out to be 1. In addition, the “cell density relative to control, E. coli ATCC 11775” value in experiment [7] is recorded as 1.

For “MRPRLRKRLLR [Cand-187, chemically synthesized candidate AMP predicted from marine biofilm bacteria]”, the “cell density relative to control, V. owensii ems001” value in the experiment with Vibrio owensii ems001 was 1. Moreover, the “cell density relative to control, V. alginolyticus xv22” value in experiment [1] was 0.84. Moreover, the “cell density relative to control, S. aureus ATCC 12600” value in experiment [2] was determined as 0.68. Besides, the “cell density relative to control, S. bongori ATCC 43975” value in experiment [3] was determined as 0.256. The “cell density relative to control, A. baumannii ATCC 19606” value in experiment [4] turned out to be 0.766. In addition, in experiment [5], the “cell density relative to control, B. subtilis ATCC 23857” value was 0.002. Further, the “cell density relative to control, M. luteus ATCC 4698” value in experiment [6] was 0.703. Besides, in experiment [7], the “cell density relative to control, E. coli ATCC 11775” value came out at 0.674.
